# Calls of active or inactive are those of the source. The rule behind the calls is not given here.
# Assays:
# HepG2 [1] = experiment: Induction of VISTA degradation in human HepG2 cells assessed as decrease in VISTA protein level at 5 uM using ECL as substrate incubated for 1 hrs by immunoblot analysis relative to control; type: cell-based; set-up: scale not given: the % may be the effect or the level left
# HepG2 [2] = experiment: Induction of VISTA degradation in human HepG2 cells assessed as decrease in VISTA protein level at 5 uM using ECL as substrate incubated for 1 hrs by immunoblot analysis; type: cell-based
# [3] = target: Programmed cell death protein 1/Programmed cell death 1 ligand 1 (Homo sapiens, UniProt Q15116+Q9NZQ7); experiment: Inhibition of PD-1/PD-L1 interaction (unknown origin) incubated for 90 min by TR-FRET assay; type: protein-complex assay
# CT26 [4] = experiment: In vivo antitumor activity against mouse CT26 cells implanted in male BALB/c mouse model assessed reduced tumor growth at 60 mg/kg oral administration once daily; type: functional, organism-based
# [5] = Toxicity in male BALB/c mouse model mouse implanted in CT26 cells assessed as mortality at 120 mg/kg, po; type: organism-based; settings: in vivo
# RKO [6] = experiment: AUTAC (autophagy-targeting chimera) activity at PD-L1 in human RKO cells assessed as autophagy-lysosome mediated protein degradation by measuring reduced PD-L1 level at 0.5 uM incubated for 24 hrs by ECL substrate based Western blotting analysis relative to control; type: cell-based; set-up: scale not given: the % may be the effect or the level left
# CT26 [7] = experiment: In vivo antitumor activity against mouse CT26 cells implanted in male BALB/c mouse model assessed reduced tumor growth oral administration once daily; type: functional, organism-based; settings: dose 30-120 mg/kg
# RKO [8] = experiment: AUTAC (autophagy-targeting chimera ) activity in autophagy-lysosome mediated PD-L1 degradation in human RKO cells assessed as PD-L1 degradation at 0.5 uM using ECL as substrate incubated for 24 hrs in presence of 3-methyladenine by immunoblot analysis; type: cell-based
# RKO [9] = experiment: AUTAC (autophagy-targeting chimera ) activity in autophagy-lysosome mediated PD-L1 degradation in human RKO cells assessed as PD-L1 degradation at 50 uM using ECL as substrate incubated for 24 hrs in presence of chloroquine by immunoblot analysis; type: cell-based
# RKO [10] = experiment: AUTAC (autophagy-targeting chimera) activity at PD-L1 in human RKO cells assessed as autophagy-lysosome mediated protein degradation measured after 24 hrs by ECL substrate based Western blotting analysis; type: cell-based; settings: dose 0.5-2 µM
# RKO [11] = experiment: AUTAC (autophagy-targeting chimera ) activity in autophagy-lysosome mediated PD-L1 degradation in human RKO cells assessed as PD-L1 degradation at 10 uM using ECL as substrate incubated for 24 hrs in presence of pepstainA by immunoblot analysis; type: cell-based
# CT26 [12] = experiment: In vivo antitumor activity against mouse CT26 cells implanted in male BALB/c mouse model assessed as decrease PD-L1 in tumor tissue at 120 mg/kg, po incubated for overnight by immunohistochemistry; type: functional, organism-based
# RKO [13] = experiment: AUTAC (autophagy-targeting chimera) activity at PD-L1 in human RKO cells assessed as autophagy-lysosome mediated protein degradation by measuring reduced PD-L1 level at 1 uM incubated for 24 hrs by ECL substrate based Western blotting analysis relative to control; type: cell-based; set-up: scale not given: the % may be the effect or the level left
# RKO [14] = experiment: Induction of autophagy in human RKO cells assessed as increase LC3II expression at 1 uM incubated for 24 hrs in presence of 3-methyladenine by immunoblot analysis; type: functional, cell-based
# [15] = Toxicity in male BALB/c mouse model mouse implanted in CT26 cells assessed as body weight loss at 120 mg/kg, po; type: organism-based; settings: in vivo
# CT26 [16] = experiment: Antitumor immunity against mouse CT26 cells implanted in male BALB/c mouse model assessed as increase infiltration of CD8+ cells at 30 to 120 mg/kg, po; type: functional, organism-based; settings: dose 30-120 mg/kg
# RKO [17] = experiment: Induction of autophagosome lysosome fusion in human RKO cells transfected with Ad-mCherry-GFP-LC3B incubated for 24 hrs by inverted fluorescence microscope analysis; type: functional, cell-based
# RKO [18] = experiment: AUTAC (autophagy-targeting chimera ) activity in autophagy-lysosome mediated PD-L1 degradation in human RKO cells assessed as PD-L1 degradation at 0.5 uM using ECL as substrate incubated for 24 hrs in presence of Cycloheximide by immunoblot analysis; type: cell-based
# RKO [19] = experiment: Upregulation of autophagy lysosome related Mitf gene expression in human RKO cells at 5 uM incubated for 24 hrs by qRT-PCR analysis; type: functional, cell-based
# RKO [20] = experiment: Upregulation of autophagy lysosome related Atg9b gene expression in human RKO cells at 5 uM incubated for 24 hrs by qRT-PCR analysis; type: functional, cell-based
# RKO [21] = experiment: Upregulation of autophagy lysosome related Lamp1 gene expression in human RKO cells at 5 uM incubated for 24 hrs by qRT-PCR analysis; type: functional, cell-based
# RKO [22] = experiment: AUTAC (autophagy-targeting chimera) activity at PD-L1 in human RKO cells assessed as autophagy-lysosome mediated protein degradation at 2 uM measured after 24 hrs by ECL substrate based Western blotting analysis; type: cell-based
# RKO [23] = experiment: AUTAC (autophagy-targeting chimera) activity at PD-L1 in human RKO cells assessed as autophagy-lysosome mediated protein degradation at 4 uM measured after 24 hrs by ECL substrate based Western blotting analysis; type: cell-based
# RKO [24] = experiment: AUTAC (autophagy-targeting chimera) activity at PD-L1 in human RKO cells assessed as autophagy-lysosome mediated protein degradation by measuring protein level at 1 uM measured after 24 hrs by ECL substrate based Western blotting analysis relative to control; type: cell-based
# RKO [25] = experiment: AUTAC (autophagy-targeting chimera) activity at PD-L1 in human RKO cells assessed as autophagy-lysosome mediated protein degradation at 1 uM measured after 24 hrs by ECL substrate based Western blotting analysis; type: cell-based
# RKO [26] = experiment: AUTAC (autophagy-targeting chimera) activity at PD-L1 in human RKO cells assessed as autophagy-lysosome mediated protein degradation by measuring protein level at 0.5 uM measured after 24 hrs by ECL substrate based Western blotting analysis relative to control; type: cell-based
# RKO [27] = experiment: AUTAC (autophagy-targeting chimera) activity at PD-L1 in human RKO cells assessed as autophagy-lysosome mediated protein degradation by measuring protein level at 2 uM measured after 24 hrs by ECL substrate based Western blotting analysis relative to control; type: cell-based
# RKO [28] = experiment: AUTAC (autophagy-targeting chimera) activity at PD-L1 in human RKO cells assessed as autophagy-lysosome mediated protein degradation by measuring protein level at 4 uM measured after 24 hrs by ECL substrate based Western blotting analysis relative to control; type: cell-based
# Chain of Programmed cell death protein 1/Programmed cell death 1 ligand 1 (Q15116 whole entry): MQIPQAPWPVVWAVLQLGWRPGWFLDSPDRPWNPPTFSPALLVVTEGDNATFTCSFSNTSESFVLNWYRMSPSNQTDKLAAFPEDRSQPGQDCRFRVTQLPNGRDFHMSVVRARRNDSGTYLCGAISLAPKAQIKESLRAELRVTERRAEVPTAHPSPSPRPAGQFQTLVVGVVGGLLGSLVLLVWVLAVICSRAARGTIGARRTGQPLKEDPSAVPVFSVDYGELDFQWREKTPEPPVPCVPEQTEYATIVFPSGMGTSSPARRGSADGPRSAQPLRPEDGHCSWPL
# Chain of Programmed cell death protein 1/Programmed cell death 1 ligand 1 (Q9NZQ7 whole entry): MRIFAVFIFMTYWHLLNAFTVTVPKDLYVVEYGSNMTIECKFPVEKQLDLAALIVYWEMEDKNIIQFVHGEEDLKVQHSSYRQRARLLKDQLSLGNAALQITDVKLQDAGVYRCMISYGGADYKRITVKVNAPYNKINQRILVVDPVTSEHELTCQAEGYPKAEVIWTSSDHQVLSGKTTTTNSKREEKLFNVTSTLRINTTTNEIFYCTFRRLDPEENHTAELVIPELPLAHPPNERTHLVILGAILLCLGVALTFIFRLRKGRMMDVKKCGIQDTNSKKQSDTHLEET
smiles,measurement,setting,value
Cc1c(-c2ccccc2)ccc2nc(-c3cccc(CNCCOCCOCCOCCNCc4cccc(Nc5nnc(-c6ccccc6)o5)c4)c3)[nH]c12,Activity,HepG2 [1],89%
same,Activity,HepG2 [2],Active
Cc1c(-c2ccccc2)cccc1-c1nnc(Nc2cccc(CNCCOCCOCCOCCNCc3cccc(-c4nc5ccc(-c6ccccc6)c(C)c5[nH]4)c3)c2)o1,Activity,HepG2 [2],Active
Cc1c(-c2ccccc2)cccc1-c1nnc(Nc2cccc(CNCCOCCOCCOCCOCCOCCNCc3cccc(Nc4nnc(-c5ccccc5)o4)c3)c2)o1,IC50,[3],23 nM
Cc1c(-c2ccccc2)cccc1-c1nnc(Nc2cccc(CNCCOCCOCCOCCOCCNCc3cccc(Nc4nnc(-c5ccccc5)o4)c3)c2)o1,Activity,CT26 [4],Active
same,Activity,[5],Non-toxic
same,Activity,RKO [6],70%
same,Activity,CT26 [7],Dose-dependent-effect
same,Activity,RKO [8],Active
same,Activity,RKO [9],Active
same,Activity,RKO [10],Dose-dependent-effect
same,Activity,RKO [11],Active
same,IC50,[3],22.8 nM
same,Activity,CT26 [12],Active
same,Activity,RKO [13],90%
same,Activity,RKO [14],Active
same,Activity,[15],Non-toxic
same,Activity,CT26 [16],Active
same,Activity,RKO [17],Active
same,Activity,RKO [18],Active
Cc1c(-c2ccccc2)cccc1-c1nnc(Nc2cccc(CNCCOCCOCCNCc3cccc(Nc4nnc(-c5ccccc5)o4)c3)c2)o1,IC50,[3],30.6 nM
OCCNCc1cccc(Nc2nnc(-c3ccccc3)o2)c1,Activity,RKO [19],Active
same,IC50,[3],> 1000 nM
same,Activity,RKO [20],Active
same,Activity,RKO [21],Active
Cc1c(-c2ccccc2)ccc2nc(-c3cccc(CNCCOCCOCCOCCOCCNCc4cccc(Nc5nnc(-c6ccccc6)o5)c4)c3)[nH]c12,Activity,HepG2 [1],87%
same,Activity,HepG2 [2],Active
Cc1c(-c2ccccc2)cccc1-c1nnc(Nc2cccc(CNCCOCCNCc3cccc(Nc4nnc(-c5cccc(-c6ccccc6)c5C)o4)c3)c2)o1,IC50,[3],39.4 nM
Cc1c(-c2ccccc2)cccc1-c1nnc(Nc2cccc(CNCCOCCOCCOCCNCc3cccc(Nc4nnc(-c5cccc(-c6ccccc6)c5C)o4)c3)c2)o1,Activity,RKO [22],Active
same,Activity,RKO [10],Dose-dependent-effect
same,IC50,[3],24.6 nM
Cc1c(-c2ccccc2)cccc1-c1nnc(Nc2cccc(CNCCOCCOCCOCCOCCNCc3cccc(-c4nc5ccc(-c6ccccc6)c(C)c5[nH]4)c3)c2)o1,Activity,HepG2 [2],Active
Cc1c(-c2ccccc2)cccc1-c1nnc(Nc2cccc(CNCCOCCOCCOCCNCc3cccc(Nc4nnc(-c5ccccc5)o4)c3)c2)o1,Activity,RKO [23],Active
same,Activity,RKO [24],72%
same,Activity,RKO [25],Active
same,Activity,RKO [26],90%
same,Activity,RKO [10],Dose-dependent-effect
same,IC50,[3],28.4 nM
same,Activity,RKO [27],44%
same,Activity,RKO [28],4%
Cc1c(-c2ccccc2)cccc1-c1nnc(Nc2cccc(CNCCOCCOCCNCc3cccc(Nc4nnc(-c5cccc(-c6ccccc6)c5C)o4)c3)c2)o1,IC50,[3],25.7 nM
CNc1cccc(CNCCOCCOCCOCCNCc2cccc(Nc3nnc(-c4cccc(-c5ccccc5)c4C)o3)c2)c1,Activity,RKO [26],93%
same,Activity,RKO [10],Dose-dependent-effect
same,IC50,[3],22.3 nM
same,Activity,RKO [27],33%
same,Activity,RKO [28],28%
CNc1cccc(CNCCO)c1,Activity,RKO [19],Active
same,IC50,[3],> 1000 nM
same,Activity,RKO [20],Active
same,Activity,RKO [21],Active

# From ChEMBL document CHEMBL6083257, “Discovery of small molecules for autophagy-lysosome degradation of immune checkpoint proteins” (Eur J Med Chem, 2024)
